Assay results: BindingDB's records for doi:10.1021/jm00366a022 (1984)

Assays:
[1] = target: Alpha-1 adrenergic receptor (Bos taurus); assay: Binding affinity against alpha-1 adrenergic receptor from calf cerebral cortex, using [3H]prazosin as the radioligand
[2] = target: Alpha-1 adrenergic receptor (Bos taurus); assay: as above; remark: listed apart in the source

| Ki [1] [nM] | Ki [2] [nM] | SMILES |
| --- | --- | --- |
| 380 | – | Oc1cccc(NCC2=NCCN2)c1 [3-[(4,5-Dihydro-1H-imidazol-2-ylmethyl)-amino]-phenol] |
| – | 230 | Cc1ccc(NCC2=NCCN2)cc1 [(4,5-Dihydro-1H-imidazol-2-ylmethyl)-p-tolyl-amine] |
| 150 | – | Cc1ccc(N(C)CC2=NCCN2)cc1 [(4,5-Dihydro-1H-imidazol-2-ylmethyl)-methyl-p-tolyl-amine] |
| – | 424 | Cc1ccc(N(CC2=NCCN2)C2CCCCC2)cc1 [Cyclohexyl-(4,5-dihydro-1H-imidazol-2-ylmethyl)-p-tolyl-amine] |
| – | 300 | CCN(CC1=NCCN1)c1ccc(C)cc1 [(4,5-Dihydro-1H-imidazol-2-ylmethyl)-ethyl-p-tolyl-amine] |
